# Measurements taken from ChEMBL document CHEMBL3885881, “DrugMatrix”.
# Species on record: Rattus norvegicus
# Experiment: DrugMatrix - Regimen: Daily Repeat
# Type: toxicity, organism-based, Sprague-Dawley
# Set-up: regimen Daily Repeat, gender Male, age 6-8 weeks
# Settings: in vivo, po, route oral GAVAGE, vehicle .5 % CMC; for ABSOLUTE BASOPHIL / ABSOLUTE EOSINOPHIL / ABSOLUTE LYMPHOCYTE / ABSOLUTE MONOCYTE / ABSOLUTE SEGMENTED NEUTROPHIL / BASOPHIL / EOSINOPHIL / ERYTHROCYTE COUNT / HEMATOCRIT / HEMOGLOBIN / LEUKOCYTE COUNT / LYMPHOCYTE / MEAN CORPUSCULAR HEMOGLOBIN / MEAN CORPUSCULAR HEMOGLOBIN CONCENTRATION / MEAN CORPUSCULAR VOLUME / MONOCYTE / NEUTROPHIL / NUCLEATED RED BLOOD CELLS / PLATELET COUNT: tissue Blood; for ALANINE AMINOTRANSFERASE / ALBUMIN / ALKALINE PHOSPHATASE / ASPARTATE AMINOTRANSFERASE / BLOOD UREA NITROGEN / CARBON DIOXIDE / CHLORIDE / CHOLESTEROL / CREATINE PHOSPHOKINASE / CREATININE / GLUCOSE / LACTATE DEHYDROGENASE / LIPASE / POTASSIUM / SODIUM / TOTAL BILIRUBIN / TOTAL PROTEIN: tissue Plasma
# [1] = 0 mg/kg, 72 h, dose level Control, time 3 day
# [2] = 0 mg/kg, 120 h, dose level Control, time 5 day
# [3] = 150 mg/kg, 72 h, dose level Low, time 3 day
smiles,measurement,setting,value
C[C@@H]1CC[C@H]2[C@@H](C)C(=O)O[C@@H]3O[C@@]4(C)CC[C@@H]1[C@]32OO4 [ARTEMISININ],ABSOLUTE BASOPHIL,[1],0 CELLS/uL
same,ABSOLUTE EOSINOPHIL,[1],171.33 CELLS/uL
same,ABSOLUTE LYMPHOCYTE,[1],13776.5 CELLS/uL
same,ABSOLUTE MONOCYTE,[1],180.83 CELLS/uL
same,ABSOLUTE SEGMENTED NEUTROPHIL,[1],1121.33 CELLS/uL
same,BASOPHIL,[1],0%
same,EOSINOPHIL,[1],1%
same,ERYTHROCYTE COUNT,[1],5.56 x10E6/uL
same,HEMATOCRIT,[1],34.75%
same,HEMOGLOBIN,[1],13.68 G/DL
same,LEUKOCYTE COUNT,[1],15.25 x10E3/uL
same,LYMPHOCYTE,[1],90.17%
same,MEAN CORPUSCULAR HEMOGLOBIN,[1],24.6 pg
same,MEAN CORPUSCULAR HEMOGLOBIN CONCENTRATION,[1],39.4 G/DL
same,MEAN CORPUSCULAR VOLUME,[1],62.48 fL
same,MONOCYTE,[1],1.17%
same,NEUTROPHIL,[1],7.67%
same,NUCLEATED RED BLOOD CELLS,[1],0 /100WBC
same,PLATELET COUNT,[1],1342 x10E3/uL
same,ALANINE AMINOTRANSFERASE,[1],49.67 u/L
same,ALBUMIN,[1],4.15 G/DL
same,ALKALINE PHOSPHATASE,[1],346.83 u/L
same,ASPARTATE AMINOTRANSFERASE,[1],108.17 u/L
same,BLOOD UREA NITROGEN,[1],17.33 mg/dL
same,CARBON DIOXIDE,[1],25 mmol/L
same,CHLORIDE,[1],100.83 MEQ/L
same,CHOLESTEROL,[1],66.83 mg/dL
same,CREATINE PHOSPHOKINASE,[1],788 u/L
same,CREATININE,[1],0.18 mg/dL
same,GLUCOSE,[1],151.67 mg/dL
same,LACTATE DEHYDROGENASE,[1],982.5 u/L
same,LIPASE,[1],10.33 u/L
same,POTASSIUM,[1],6.37 MEQ/L
same,SODIUM,[1],141.02 MEQ/L
same,TOTAL BILIRUBIN,[1],0.18 mg/dL
same,TOTAL PROTEIN,[1],5.9 G/DL
same,ABSOLUTE BASOPHIL,[2],0 CELLS/uL
same,ABSOLUTE EOSINOPHIL,[2],69 CELLS/uL
same,ABSOLUTE LYMPHOCYTE,[2],13632.83 CELLS/uL
same,ABSOLUTE MONOCYTE,[2],139.83 CELLS/uL
same,ABSOLUTE SEGMENTED NEUTROPHIL,[2],1225 CELLS/uL
same,BASOPHIL,[2],0%
same,EOSINOPHIL,[2],0.33%
same,ERYTHROCYTE COUNT,[2],5.52 x10E6/uL
same,HEMATOCRIT,[2],33.98%
same,HEMOGLOBIN,[2],13.22 G/DL
same,LEUKOCYTE COUNT,[2],15.07 x10E3/uL
same,LYMPHOCYTE,[2],90.83%
same,MEAN CORPUSCULAR HEMOGLOBIN,[2],23.95 pg
same,MEAN CORPUSCULAR HEMOGLOBIN CONCENTRATION,[2],38.9 G/DL
same,MEAN CORPUSCULAR VOLUME,[2],61.53 fL
same,MONOCYTE,[2],0.83%
same,NEUTROPHIL,[2],8%
same,NUCLEATED RED BLOOD CELLS,[2],0 /100WBC
same,PLATELET COUNT,[2],1196 x10E3/uL
same,ALANINE AMINOTRANSFERASE,[2],49.17 u/L
same,ALBUMIN,[2],4.2 G/DL
same,ALKALINE PHOSPHATASE,[2],352.33 u/L
same,ASPARTATE AMINOTRANSFERASE,[2],89.67 u/L
same,BLOOD UREA NITROGEN,[2],18 mg/dL
same,CARBON DIOXIDE,[2],27.67 mmol/L
same,CHLORIDE,[2],101 MEQ/L
same,CHOLESTEROL,[2],72.83 mg/dL
same,CREATINE PHOSPHOKINASE,[2],417.5 u/L
same,CREATININE,[2],0.18 mg/dL
same,GLUCOSE,[2],150.5 mg/dL
same,LACTATE DEHYDROGENASE,[2],517.33 u/L
same,LIPASE,[2],9 u/L
same,POTASSIUM,[2],6.57 MEQ/L
same,SODIUM,[2],143.62 MEQ/L
same,TOTAL BILIRUBIN,[2],0.2 mg/dL
same,TOTAL PROTEIN,[2],6.08 G/DL
same,ABSOLUTE BASOPHIL,[3],0 CELLS/uL
same,ABSOLUTE EOSINOPHIL,[3],206 CELLS/uL
same,ABSOLUTE LYMPHOCYTE,[3],10521.33 CELLS/uL
same,ABSOLUTE MONOCYTE,[3],315 CELLS/uL
same,ABSOLUTE SEGMENTED NEUTROPHIL,[3],957.67 CELLS/uL
same,BASOPHIL,[3],0%
same,EOSINOPHIL,[3],1.67%
same,ERYTHROCYTE COUNT,[3],6.1 x10E6/uL
same,HEMATOCRIT,[3],36.63%
same,HEMOGLOBIN,[3],13.77 G/DL
same,LEUKOCYTE COUNT,[3],12 x10E3/uL
same,LYMPHOCYTE,[3],87.67%
same,MEAN CORPUSCULAR HEMOGLOBIN,[3],22.63 pg
same,MEAN CORPUSCULAR HEMOGLOBIN CONCENTRATION,[3],37.6 G/DL
same,MEAN CORPUSCULAR VOLUME,[3],60.1 fL
same,MONOCYTE,[3],2.67%
same,NEUTROPHIL,[3],8%
same,NUCLEATED RED BLOOD CELLS,[3],0 /100WBC
same,PLATELET COUNT,[3],1362.67 x10E3/uL
same,ALANINE AMINOTRANSFERASE,[3],38 u/L
same,ALBUMIN,[3],4.53 G/DL
same,ALKALINE PHOSPHATASE,[3],347.67 u/L
same,ASPARTATE AMINOTRANSFERASE,[3],86.67 u/L
same,BLOOD UREA NITROGEN,[3],22 mg/dL
same,CARBON DIOXIDE,[3],25.33 mmol/L
same,CHLORIDE,[3],104.33 MEQ/L
same,CHOLESTEROL,[3],87.67 mg/dL
same,CREATINE PHOSPHOKINASE,[3],336.33 u/L
same,CREATININE,[3],0.24 mg/dL
same,GLUCOSE,[3],145.67 mg/dL
same,LACTATE DEHYDROGENASE,[3],459.33 u/L
same,LIPASE,[3],11 u/L
same,POTASSIUM,[3],6.03 MEQ/L
same,SODIUM,[3],146.83 MEQ/L
same,TOTAL BILIRUBIN,[3],0.13 mg/dL
